Source: patent publication US20070254019A1, “METHOD FOR TREATING BRAIN CANCER” (priority 2006, published 2007)

How the values were obtained:
[1] = Plasma, tumor and tissue pharmacokinetic disposition of CKD-602 after single IV administration in mice bearing A375 tumors; assay type: in vivo
Text: The objectives of the study were to evaluate the plasma, tumor, and tissue disposition of CKD-602 after a single intravenous (IV) administration of liposomes entrapped with CKD-602 and having an outer surface coating of methoxypolyethylene glycol (S-CKD602) and non-liposomal CKD-602 in female SCID mice bearing A375 human melanoma xenografts. New sample processing methods were developed to evaluate the encapsulated and released CKD-602 in plasma after administration of S-CKD602. Microdialysis methodology was used to evaluate the release of CKD-602 from S-CKD602 in tumor ECF.
Mice. All mice were handled in accordance with the Guide to the Care and Use of Laboratory Animals (National Research Council, 1996), and studies were approved by the Institutional Animal Care and Use Committee at the University of Pittsburgh Medical Center. Mice (female C.B-17 SCID,4-6 weeks of age, and specific pathogen free), were obtained from Taconic (Hudson, N.Y.), and were allowed to acclimate to the animal facilities at the University of Pittsburgh for 1 week prior to initiation of study. Mice were housed in microisolator cages and allowed ISDPRO autoclavable rodent chow (PMI Nutrition International, Inc., Brentwood, Mo.) and mice received water ad libitum. Body weights and tumor size were measured twice weekly and clinical observations were made twice daily.
Tumor Lines. A375 human melanoma xenografts were obtained from the DCTD Tumor Repository (Fredrick, Md.) and were mouse antigen production test-negative. A375 tumors were expanded in culture and injected (1×10^7 cells/mouse) subcutaneously into passage mice. The A375 tumors were harvested when they were 1 to 2 g and were implanted as approximately 25-mg fragments subcutaneously on the fight flank of SCID mice by aseptic techniques. […] Pharmacokinetic and microdialysis studies were performed when the tumors were approximately 1000 to 1500 mm^3 (1 to 1.5 g) in size.
Formulation and Administration. S-CKD602 is a pegylated liposomal formulation of CKD-602. The clinical formulation of S-CKD602 was used in this study (Alza Corp., Mountain View Calif.) (Zamboni et al., Final results of a phase I and pharmacokinetic study of STEALTH liposomal CKD-602 (S-CKD602) in subjects with advanced solid tumors. Proceedings of ASCO […];82s:2006). Approximately 80% of the lipid in S-CKD602 liposome is fully hydrogenated soy phosphatidylcholine and cholesterol. In addition, methoxypolyethylene glycol is covalently bound to phosphatidylethanolamine and a component of the lipid bilayer. The mean particle size of the S-CKD602 was approximately 110 nm. CKD-602 is encapsulated in the core of the liposome with an encapsulation efficiency of greater than 90%. The drug-to-lipid ratio of S-CKD602 is approximately […] CKD-602 per milligram of lipid. In the S-CKD602 formulation, the CKD-602 concentration was 0.1 mg/mL. The doses of S-CKD602 refer to actual doses of CKD-602. S-CKD602 was administered at 1 mg/kg IV push via a tail vein over approximately 1 min. This dose is one-half the maximum tolerated dose (MTD) in mice. The dose of S-CKD602 administered was based on the maximum volume of drug allowed to be administered IV by the study's IACUC.
Non-liposomal CKD602 was administered at 30 mg/kg IV push via the tail vein. This dose is approximately the MTD for a single dose of non-liposomal CKD-602 in mice. Non-liposomal CKD-602 was prepared at 3 mg/mL in 270 mM mannitol and 0.4 mM tartaric acid in a 5% dextrose solution at pH 3.6. The vehicle control for S-CKD602 and non-liposomal CKD-602 was 0.9% NaCI and 270 mM mannitol and 0.4 mM tartaric acid in a 5% dextrose solution at pH 3.6, respectively.
Pharmacokinetic Studies. Due to limited sample volume, the pharmacokinetic and microdialysis studies were performed in separate groups of mice. Pharmacokinetic studies of S-CKD602 were performed after administration of vehicle, and at 5 min, 0.25, 0.5, 1, 2, 4, 7, 16, 24, 48, and 72 h after administration. […]

[2] = mice; IV push
[3] = Microdialysis study of tumor ECF disposition of CKD-602
Experimental: At all other microdialysis sample intervals, probe recovery was estimated using camptothecin as a tracer agent.
The HPLC system consisted of a Finnigan Specta Systems AS3000 autosampler and P4000 quarternary pump (Thermo Finnigan, Waltham, Mass.) with a Phenomenex Synergi Hydro-RP 80A (4 um, 100×2 mm) analytical column (Phenomenex, Torrance, Calif.). The isocratic mobile phase consisted of 0.1% formic acid in methanol:water (35:85, v/v) and was pumped at 0.2 mL/min. Injection volume was 10 pL and the run time was 10 min. […] The insert probe temperature was set at 400° C. with 3 kV ion spray voltage and 20 V orifice voltage. Nitrogen gas flow was fixed at 75 p.s.i. at the tank head unit. The system was operated with ThermoFinnigan Xcaliber software.

[4] = brain, single IV dose (S-CKD602 1 mg/kg; non-liposomal 30 mg/kg)
[5] = fat, single IV dose (S-CKD602 1 mg/kg; non-liposomal 30 mg/kg)
[6] = kidney, single IV dose (S-CKD602 1 mg/kg; non-liposomal 30 mg/kg)
[7] = liver, single IV dose (S-CKD602 1 mg/kg; non-liposomal 30 mg/kg)
[8] = muscle, single IV dose (S-CKD602 1 mg/kg; non-liposomal 30 mg/kg)
[9] = plasma, single IV dose (S-CKD602 1 mg/kg; non-liposomal 30 mg/kg)
[10] = spleen, single IV dose (S-CKD602 1 mg/kg; non-liposomal 30 mg/kg)
[11] = tumor, single IV dose (S-CKD602 1 mg/kg; non-liposomal 30 mg/kg)
[12] = tumor ECF by microdialysis, S-CKD602 (1 mg/kg), Non-Liposomal CKD-602 (30 mg/kg) IV

CC[C@@]1(O)C(=O)OCc2c1cc1n(c2=O)Cc2c-1nc1ccccc1c2CCNC(C)C [Non-Liposomal CKD-602]
AUC, sum total CKD-602, Brain [1, 4]: 849 ng·h/mL
Cmax, sum total CKD-602, Brain [1, 4]: 572 ng/mL
Tlast, sum total CKD-602, Brain [1, 4]: 7 h
Tmax, sum total CKD-602, Brain [1, 4]: 4.8 min
Cmax, sum total CKD-602, Fat [1, 5]: 7,321 ng/mL
Tlast, sum total CKD-602, Fat [1, 5]: 24 h
Tmax, sum total CKD-602, Fat [1, 5]: 15 min
AUC, sum total CKD-602, Kidney [1, 6]: 56,267 ng/mL · h
Cmax, sum total CKD-602, Kidney [1, 6]: 68,497 ng/mL
Tlast, sum total CKD-602, Kidney [1, 6]: 24 h
Tmax, sum total CKD-602, Kidney [1, 6]: 4.8 min
AUC, sum total CKD-602, Liver [1, 7]: 68,620 ng/mL · h
Cmax, sum total CKD-602, Liver [1, 7]: 69,000 ng/mL
Tlast, sum total CKD-602, Liver [1, 7]: 16 h
Tmax, sum total CKD-602, Liver [1, 7]: 240 min
Cmax, sum total CKD-602, Muscle [1, 8]: 12,383 ng/mL
Tlast, sum total CKD-602, Muscle [1, 8]: 24 h
Tmax, sum total CKD-602, Muscle [1, 8]: 4.8 min
overall distribution in muscle compared with fat ([1]; non-liposomal CKD-602 30 mg/kg IV, muscle vs fat): 3 fold
AUC, sum total CKD-602, Fat ([1]; peritoneal cavity fat, single IV dose (S-CKD602 1 mg/kg; non-liposomal 30 mg/kg)): 8,280 ng/mL · h
Plasma Sum Total AUC(0-inf) ([1]; plasma, S-CKD602 (1 mg/kg), Non-Liposomal CKD-602 (30 mg/kg) IV): 9,117 ng/mL · h
Tlast, sum total CKD-602, Plasma ([1]; plasma, last detectable time, single IV dose (S-CKD602 1 mg/kg; non-liposomal 30 mg/kg)): 16 h
Cmax, sum total CKD-602, Plasma [1, 9]: 6,959 ng/mL
Tmax, sum total CKD-602, Plasma [1, 9]: 4.8 min
Tmax, sum total CKD-602, Plasma ([1]; plasma, single IV dose (S-CKD602 1 mg/kg; non-liposomal 30 mg/kg), listed as non-liposomal CKD-602): 4.98 min
AUC, sum total CKD-602, Plasma ([1]; plasma, single IV dose (S-CKD602 1 mg/kg; non-liposomal CKD-602 30 mg/kg)): 9,117 ng/mL · h
AUC, sum total CKD-602, Muscle ([1]; skeletal muscle, single IV dose (S-CKD602 1 mg/kg; non-liposomal 30 mg/kg)): 24,485 ng/mL · h
AUC, sum total CKD-602, Spleen [1, 10]: 23,124 ng/mL · h
Cmax, sum total CKD-602, Spleen [1, 10]: 14,724 ng/mL
Tlast, sum total CKD-602, Spleen [1, 10]: 24 h
Tmax, sum total CKD-602, Spleen [1, 10]: 15 min
tissues with the highest exposures of CKD-602 ([1]; sum total CKD-602 in tissues): liver and kidney
Tumor Sum Total(0-inf) ([1]; tumor homogenate AUC, S-CKD602 (1 mg/kg), Non-Liposomal CKD-602 (30 mg/kg) IV): 11,661 ng/mL · h
Cmax, sum total CKD-602, Tumor [1, 11]: 3,688 ng/mL
Tlast, sum total CKD-602, Tumor [1, 11]: 24 h
Tmax, sum total CKD-602, Tumor [1, 11]: 30 min
MTD for a single dose [2]: ~30 mg/kg
CKD-602 in tumor ECF detectable until ([3]; detectable from 10 min, microdialysis): 19.25 h
variation of CKD-602 concentration in tumor ECF at individual time points ([3]; during the collection intervals): 4- to 5 fold
Time >1 ng/mL In Tumor ECF [3, 12]: ˜20 h
Tumor ECF AUC(0-inf) [3, 12]: 639 ng·h/mL
